The results in this text go back to ChEMBL document CHEMBL3045524, “Development of a new acaricide, cyflumetofen” (J Pestic Sci, 2012).

In brackets after ≈: the same amount, converted by molar mass.

Data set [1] in a line: Octanol-water partition co-efficient, log P of the compound. The data set is classed as physicochemical.
Data set [2] can be described thus: Solubility of the compound in water. The data set is classed as physicochemical.
A further data set concerns Tetranychus kanzawai. The data set can be described thus: Acaricidal activity against Tetranychus kanzawai at developmental stages. In kind it is functional.
A further data set concerns Panonychus citri. The data set can be described thus: Acaricidal activity against Panonychus citri at developmental stages. The data set is classed as functional.
In data set [3] the test system is Tetranychus urticae. The data set can be described thus: Acaricidal activity against Tetranychus urticae (two-spotted spider mite) adult. The data set is classed as functional.
The subject of data set [4] is Tetranychus urticae. The data set can be described thus: Acaricidal activity against Tetranychus urticae (two-spotted spider mite) larvae. In kind it is functional.

A word on the logP: it is a log measure of how a compound divides between an organic and an aqueous phase. Usually solubility stands for how much of the substance goes into solution per volume. The low end stands for little dissolved substance, the high end for much dissolved substance. The LC50 is the concentration lethal to half of the exposed cells or organisms. For the molecule `COCCOC(=O)C(C#N)(C(=O)c1ccccc1C(F)(F)F)c1ccc(C(C)(C)C)cc1` (racemic) [CYFLUMETOFEN], the logP in data set [1] was found to be 4.3. Besides, the solubility in data set [2] turned out to be 0.0281 µg/mL (≈ 0.0628 µM). The LC50 is under 5 µg/mL in the data set with Tetranychus kanzawai, under 5 µg/mL in the data set with Panonychus citri, 4.8 µg/mL (≈ 10.7 µM) in the data set with Tetranychus urticae [3] and 0.9 µg/mL (≈ 2.01 µM) with Tetranychus urticae [4].
